These are literature values, as cited in patent US20070281910A1, “Salicyl alcohol creatine phosphate prodrugs, compositions and uses thereof” (XenoPort, Inc., priority 2006, published 2007).

Read-outs that look alike come from different tables or passages of the source.

Assay in data set [1]: not given
This is another data set of the same source.

For data set [2] the following is noted: animals fed a diet containing up to 1%.

With `CN(CC(=O)O)C(=N)NP(=O)(O)O` [Creatine phosphate, creatine phosphate], the adverse side effects result (patients with cardiac diseases, intravenous injection up to 8 gm/day) is reported as “without adverse side effects”. For the compound `CN(CC(=O)O)C(=N)N.O` [creatine monohydrate], under “athletes and body builders, 2-3 gm/day”, the adverse side effects entry is listed as “without adverse side effects”. Consider `CN(CC(=O)O)C(=N)N` [creatine], for which the “overall increase of creatine phosphate levels” value in data set [1] (creatine supplementation over weeks) is reported as < 50%. In data set [1] (following oral creatine supplementation), the “duration of increase in tissue creatine phosphate levels” value is on record as > 14 days. Moreover, the “increase of cerebral creatine phosphate” value in data set [1] (healthy volunteers, oral creatine administration) is “about 10%”. On to `NC1=NCCN1CC(=O)O` [cyclocreatine], for which, in data set [2], the adverse effects result was “do not exhibit adverse effects”.
